Laboratory results as given in patent US9765101B2, “Organo-arsenoxide compounds and use thereof” (NewSouth Innovations Pty Limited, priority 2006, dated 2017).

What was measured:
Type in all cases: cell-based, bovine
BAE cells [1] = assay: BAE cell proliferation assay (MTT, 72 h)
Method: BAE cells were from Cell Applications, San Diego, Calif. and BxPC-3, HT1080, LLC, PANC-1, MCF-7, HCT116 and K562 cells were from ATCC, Bethesda, Md. NB4 and MDCK2 cells were from Shane Supple (Kanematsu Laboratories, Royal Prince Alfred Hospital, Sydney, Australia) and P. Borst (The Netherlands Cancer Institute, Amsterdam, The Netherlands). BAE, HT1080, Panc-1, MCF-7, HCT116, MDCK2 and LLC cells were cultured in DMEM. NB4, K562 and BxPC-3 cells were cultured in RPMI medium. The cells were supplemented with 10% foetal calf serum (FBS), 2 mM L-glutamine, and 1 U·mL-1 penicillin/streptomycin. Cell culture plasticware was from Techno Plastic Products (Trasadingen, Switzerland). All other cell culture reagents were from Gibco (Gaithersburg, Md.).
Adherent cells were allowed to adhere overnight.

BAE cells [2] = assay: BAE cell proliferation assay, 24, 48 or 72 h (Example 2)
Method: Bovine aortic endothelial (BAE) cells were from Cell Application (San Diego, Calif.). BAE cells were cultured in DMEM supplemented with 10% fetal calf serum, 2 mM L-glutamine, and 5 units per mL penicillin and streptomycin (Gibco, Gaithersburg, Md.). Cells were cultured at 37° C. in a 5% CO2, 95% air atmosphere. BAE cells were seeded in 96-well plates (5,000 cells per well) in 0.2 ml of culture medium. After 24 h of growth, the medium was replaced with fresh culture medium supplemented with GSAO, CAO or 4H10 and cells were cultured for an additional 24, 48 or 72 h. Viable attached cells were determined using the tetrazolium salt MTT (Sigma, St. Louis, Mo.) according to the manufacturer's protocol. Results were expressed as percentage of untreated controls.

BAE cells [3] = assay: Accumulation of GSAO and CAO in BAE cells (ICPMS)
Method: (§1) Depending on the type of experiments, 1.6×10^6 or 7.5×10^5 BAE cells were seeded in petri dishes or 6-well-plates, respectively, and allowed to attach overnight. The medium was replaced and the cells were incubated for 30 min in the absence or presence of acivicin or 4H10. The cells were then incubated with 50 or 100 μM GSAO or CAO […] for 4 h. Cells were then washed twice with ice-cold PBS and lysed with 1 ml of 70% w/w nitric acid.

[4] = biological target: T1, multidrug resistance associated protein 1 (MRP-1) (Bos taurus, UniProt Q8HXQ5); assay: Accumulation in BAE cells with MRP-1 inhibitor 4H10
T1 construct: host or cells: BAE (bovine aortic endothelial) cells
T1 sequence (Q8HXQ5 whole entry): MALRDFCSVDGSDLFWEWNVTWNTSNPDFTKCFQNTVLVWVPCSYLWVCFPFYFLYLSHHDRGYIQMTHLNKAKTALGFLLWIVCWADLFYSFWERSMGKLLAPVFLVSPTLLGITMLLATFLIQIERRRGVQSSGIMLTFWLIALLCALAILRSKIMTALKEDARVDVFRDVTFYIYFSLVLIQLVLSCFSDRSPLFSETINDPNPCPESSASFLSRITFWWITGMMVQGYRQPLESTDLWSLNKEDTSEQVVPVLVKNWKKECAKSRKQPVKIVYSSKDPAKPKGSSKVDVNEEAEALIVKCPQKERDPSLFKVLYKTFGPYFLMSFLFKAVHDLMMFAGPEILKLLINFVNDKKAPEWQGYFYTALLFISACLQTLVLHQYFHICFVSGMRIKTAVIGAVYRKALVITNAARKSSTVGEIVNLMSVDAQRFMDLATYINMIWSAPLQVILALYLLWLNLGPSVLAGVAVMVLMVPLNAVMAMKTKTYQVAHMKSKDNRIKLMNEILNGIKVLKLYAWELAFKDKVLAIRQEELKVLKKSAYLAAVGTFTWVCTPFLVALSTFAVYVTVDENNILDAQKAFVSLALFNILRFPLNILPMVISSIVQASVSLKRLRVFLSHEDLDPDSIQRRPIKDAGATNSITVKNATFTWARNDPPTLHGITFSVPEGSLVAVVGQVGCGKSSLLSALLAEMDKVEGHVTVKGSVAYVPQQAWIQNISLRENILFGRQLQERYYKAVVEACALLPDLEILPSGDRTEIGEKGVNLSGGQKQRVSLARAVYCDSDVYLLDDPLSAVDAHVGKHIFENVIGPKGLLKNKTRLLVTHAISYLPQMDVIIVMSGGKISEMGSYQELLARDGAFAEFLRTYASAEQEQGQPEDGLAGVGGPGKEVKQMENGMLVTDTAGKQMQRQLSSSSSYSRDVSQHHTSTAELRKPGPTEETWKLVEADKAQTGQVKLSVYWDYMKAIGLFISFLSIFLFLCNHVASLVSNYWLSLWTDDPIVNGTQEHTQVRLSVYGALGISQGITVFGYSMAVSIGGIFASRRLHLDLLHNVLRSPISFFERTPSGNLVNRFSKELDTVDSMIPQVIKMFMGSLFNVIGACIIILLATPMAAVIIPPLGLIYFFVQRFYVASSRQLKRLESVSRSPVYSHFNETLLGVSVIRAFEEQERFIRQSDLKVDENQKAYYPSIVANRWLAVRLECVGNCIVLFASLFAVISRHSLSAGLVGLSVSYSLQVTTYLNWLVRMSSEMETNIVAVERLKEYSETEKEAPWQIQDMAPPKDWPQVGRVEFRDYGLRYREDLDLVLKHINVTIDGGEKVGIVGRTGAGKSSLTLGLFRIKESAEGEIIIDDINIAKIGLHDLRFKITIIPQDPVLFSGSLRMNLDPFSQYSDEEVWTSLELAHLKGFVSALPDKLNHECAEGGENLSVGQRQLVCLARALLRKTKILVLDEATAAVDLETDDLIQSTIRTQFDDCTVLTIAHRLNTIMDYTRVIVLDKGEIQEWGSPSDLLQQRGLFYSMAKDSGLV
Method: FIG. 16. […] A. CAO accumulates in cells at a much faster rate than GSAO. BAE cells were incubated with 50 μM GSAO or CAO for 4 h. Cellular arsenic levels were determined by ICPMS. The rates of accumulation are GSAO and CAO are 0.03 and 0.20 nmol As atoms per 10^6 cells, respectively. Data points are the mean±SD of three determinations. The results are representative of two experiments. […] BAE cells pretreated for 30 min with 10 μM of the MRP-1 inhibitor 4H10 were incubated with 50 μM GSAO or CAO for 2 h. Cellular arsenic levels were determined by ICPMS. Data points are the mean±SD of three determinations. The results are representative of two experiments. C. GSAO and CAO IC50 values for proliferation arrest of endothelial cells. BAE cells were incubated with 0.8-100 μM GSAO or CAO for 24, 48 or 72 h. Cell viability was determined using MTT. Results are expressed as percentage of control. Values are mean±SD of triplicate determinations. Results are representative of three experiments.
as §1, with “Cells were then washed twice with ice-cold PBS and lysed with 1 ml of 70% w/w nitric acid.” left out

Structure (SMILES) | effect on proliferation of BAE cells (BAE cells [1]) | anti-proliferative activity compared to GSAO (BAE cells [2]) | rate of accumulation in endothelial cells, fold faster than GSAO (BAE cells [3]) | rate of accumulation (BAE cells [3]; 50 μM, 4 h) | export by multidrug resistance associated protein 1 [4] | increase of cellular accumulation when MRP-1 was inhibited ([4]; 10 μM 4H10 30 min, then 50 μM compound 2 h)
CC(C)(SCC(=O)Nc1ccc([As](=O)(O)O)cc1)[C@@H](N)C(=O)O [(S)-Penicillamine-arsenonic acid, reference compound] | no effect on proliferation |  |  |  |  | 
NC(CSCC(=O)Nc1ccc([As](O)O)cc1)C(=O)O (stereo not drawn) [CAO, 4-(N—(S-cysteinylacetyl)amino)-phenylarsinous acid] |  | greater anti-proliferative activity than GSAO | ~8 fold | 0.20 nmol As atoms per 10^6 cells | exported from cells by the multidrug resistance associated protein 1 | ~3 fold
